Like-named read-outs stand apart in the source and are kept apart here.
Experiments:
[1] = system: monoclonal antibody of clone C-1 (anti-dioxin antibody); assay: Competitive EIA: inhibition of binding of clone C-1 monoclonal antibody to solid-phase antigen by free dioxin; set-up: species or system mouse
Description: (§1) Using various monoclonal antibodies, the specificity of the monoclonal antibodies to dioxin isomers was examined. The monoclonal antibodies were prepared in the following manner. An antibody-producing cell was injected into the abdominal cavity of a pristane-pretreated mouse. Th ascites fluid in the abdominal cavity caused by the growth of the cells was collected, and then a monoclonal antibody was purified by affinity chromatography using a protein G-Sepharose (manufactured by BIO-RAD Co.) as a carrier. Using three antibody-producing clones C-1, C-2 and C-3, respective monoclonal antibodies were prepared. The clones C-1, C-2 and C-3 produce monoclonal antibodies with respect to dibenzodioxin having chlorine atom at the 2-, 3-, 7-, and 8-positions.
(§2) To evaluate the specificity of the monoclonal antibody was performed according to the following principles. A solid-phase antigen (competitor) and a free dioxin (ligand) are allowed to compete with each other with respect to a free monoclonal antibody (anti-dioxin antibody). If the reactivity of the monoclonal antibody and the dioxin is higher than that of the monoclonal antibody and the solid-phase antigen, the binding of the monoclonal antibody to the solid-phase antigen is reduced. This reduction of the binding of the monoclonal antibody to the solid-phase antigen can be measured by color development method. This phenomenon can be applied to evaluate the specificity.
(§3) First, the immune antigen or the compound (IIa) conjugated with BSA that was produced in Example 2 was diluted with PBS to 1 μg/ml, and divided into each well of a 96-well assay plate (manufactured by Costar, Cat. No. 3590) in an amount of 50 μl. Then, the plate was sealed and allowed to stand at room temperature for one hour. Then, each well was washed with PBS containing 0.005% of Tween 20 three times. Next, 300 μl of Block Ace (manufactured by Snow Brand Milk Products Co., Ltd.) diluted with distilled water to a concentration of 25% was supplied to each well, and the plate was sealed and allowed to stand at 37° C. for two hours. Each well was washed with PBS containing 0.005% of Tween 20 three times. Then, a 25 μl of the dioxin compound solution of a final concentration of 5×10^−7 M was added to each well. The dioxin compound solution was prepared by diluting the dioxin with a dilution solvent comprising 20% DMSO and 0.01% of Triton X100. As controls, a dilution solvent in an amount of 25 μl was added to each well. Immediately after the addition of the dioxin compound solution or the dilution solvent, 25 μl of an antibody solution diluted with PBS containing 1 mg/ml of BSA was added to each well. The assay plate was stand at room temperature for one hour with slightly shaking.
(§4) After washing with PBS containing 0.005% of Tween 20 three times, 50 μl of the diluted HRP-labeled goat anti-mouse IgG (H+L) antibody (produced by affinity purification) was added to each well. The diluted HRP-labeled antibody was prepared by diluting the purchased HRP-labeled antibody to 2000 times as much with 10% Block Ace. The plate was allowed to stand at room temperature for one hour, followed by washing with PBS containing 0.005% of Tween 20 three times. Then, 50 μl of a HRP substrate, TMB (manufactured by KPL Co., Ltd.), was added to each well and allowed to stand at room temperature for 5 to 10 min. Then, 5 μl of a 1 M phosphate solution was added to each well, and the absorbance at a wavelength of 455 nm (655 nm for the reference) was measured with a spectrophotometer for a microtiter. The reactivity was evaluated by obtaining the absorbance (B0) at the time when the dioxin compound is not added, which is a control (diluent) and the absorbance (B) at the time when the dioxin compound is added. The inhibition rate was measured based on the following equation. Inhibition rate={(B0−B)/B0}×100 (%)
(§5) Evaluation was such that the larger this inhibition rate is, the higher the specificity of the anti-dioxin antibody to the dioxin compound.

[2] = system: monoclonal antibody of clone C-2 (anti-dioxin antibody); assay: Competitive EIA: inhibition of binding of clone C-2 monoclonal antibody to solid-phase antigen by free dioxin; set-up: species or system mouse
Description: as §1, §2, §3, §4, §5

[3] = system: monoclonal antibody of clone C-3 (anti-dioxin antibody); assay: Competitive EIA: inhibition of binding of clone C-3 monoclonal antibody to solid-phase antigen by free dioxin; set-up: species or system mouse
Description: as §1, §2, §3, §4, §5

[4] = system: anti-dioxin antibody (monoclonal antibody) to 1,2,3,7,8-PeCDF; assay type: binding, mouse
Description: as §3, §4
An anti-dioxin antibody (monoclonal antibody) to 1,2,3,7,8-PeCDF is used as an antibody. A haptenized product of a solid-phase antigen 6-(2,4,5-trichlorophenoxy) hexanoic acid amide derivative (IIa) and the chlorine-containing organic compounds in Tables 2 and 3 were allowed to compete with each other to this anti-dioxin antibody so that a competitive reaction was effected in the same manner as in Example 3. Then, the cross-reactivity was examined.

[5] = toxicity equivalent factor of the dioxins used; cited from earlier work
[6] = solid-phase antigen * (haptenized product of 6-(2,4,5-trichlorophenoxy) hexanoic acid amide derivative IIa), dioxin compound 5×10^−7 M
[7] = solid-phase antigen immunogen 1, dioxin compound final concentration 5×10^−7 M
[8] = solid-phase antigen immunogen 2, dioxin compound final concentration 5×10^−7 M
[9] = solid-phase antigen immunogen 3, dioxin compound final concentration 5×10^−7 M
[10] = Table 2, dioxins having TEF, solid-phase antigen (IIa), antibody to 1,2,3,7,8-PeCDF
[11] = Table 3, other chlorine-containing organic compounds and polycyclic aromatic hydrocarbons, solid-phase antigen (IIa), antibody to 1,2,3,7,8-PeCDF

Row | Compound | Inhibition rate [1, 6] [%] | Inhibition rate [1, 7] [%] | Inhibition rate [2, 6] [%] | Inhibition rate [2, 8] [%] | Inhibition rate [3, 6] [%] | Inhibition rate [3, 9] [%] | cross reaction [4, 10] [%] | TEF value [5] | cross reaction [4, 11] [%] | cross reaction [4] [%]
1 | Clc1cc2c(c(Cl)c1Cl)Oc1c(Cl)c(Cl)c(Cl)c(Cl)c1O2 [1,2,3,4,6,7,8-HpCDD] | 1.4 | 1.5 | −3.2 | −12.4 | 2.1 | 0.4 | 17.0 | 0.01 | – | –
2 | Clc1cc2c(oc3c(Cl)c(Cl)c(Cl)c(Cl)c32)c(Cl)c1Cl [1,2,3,4,6,7,8-HpCDF] | 7.5 | −0.9 | 51.4 | 6.8 | 3.4 | −2.7 | 17.9 | 0.01 | – | –
3 | Clc1cc2oc3c(Cl)c(Cl)c(Cl)c(Cl)c3c2c(Cl)c1Cl [1,2,3,4,7,8,9-HpCDF] | 7.1 | 5.8 | 7.5 | 27.7 | 11.3 | 6.1 | 28.7 | 0.01 | – | –
4 | Clc1cc2c(cc1Cl)Oc1c(Cl)c(Cl)c(Cl)c(Cl)c1O2 [1,2,3,4,7,8-HxCDD] | 14.1 | −1.4 | 19.1 | −9.4 | −2.3 | −2.5 | 24.8 | 0.1 | – | –
5 | Clc1cc2oc3c(Cl)c(Cl)c(Cl)c(Cl)c3c2cc1Cl [1,2,3,4,7,8-HxCDF] | −1.5 | 3.3 | −11.2 | 5.2 | 0.8 | 4.9 | 45.9 | 0.1 | – | –
6 | Clc1cc2c(c(Cl)c1Cl)Oc1cc(Cl)c(Cl)c(Cl)c1O2 [1,2,3,6,7,8-HxCDD] | −0.3 | 3.1 | 2.2 | −6.2 | 6.7 | 3.9 | 18.0 | 0.1 | – | –
7 | Clc1cc2c(oc3cc(Cl)c(Cl)c(Cl)c32)c(Cl)c1Cl [1,2,3,6,7,8-HxCDF] | 7.0 | 3.5 | 5.0 | 9.4 | 4.1 | 2.9 | 36.6 | 0.1 | – | –
8 | Clc1cc2c(c(Cl)c1Cl)Oc1c(cc(Cl)c(Cl)c1Cl)O2 [1,2,3,7,8,9-HxCDD] | 19.1 | 15.7 | 41.9 | 30.6 | 28.6 | 6.7 | 39.8 | 0.1 | – | –
9 | Clc1cc2oc3cc(Cl)c(Cl)c(Cl)c3c2c(Cl)c1Cl [1,2,3,7,8,9-HxCDF] | 34.7 | 26.2 | 68.1 | 43.3 | 48.1 | 10.4 | 42.7 | 0.1 | – | –
10 | Clc1cc2c(cc1Cl)Oc1c(cc(Cl)c(Cl)c1Cl)O2 [1,2,3,7,8-PeCDD] | 46.2 | 21.3 | 70.4 | 45.7 | 31.2 | 5.4 | 29.9 | 1 | – | –
11 | Clc1cc2oc3cc(Cl)c(Cl)c(Cl)c3c2cc1Cl [1,2,3,7,8-PeCDF] | 27.1 | 11.8 | 68.6 | 17.5 | 23.2 | 0.5 | 100.0 | 0.05 | 100.0 | –
12 | Clc1cccc(Cl)c1Cl [1,2,3-Trichlorobenzene] | – | – | – | – | – | – | – | – | <0.1 | –
13 | Clc1cc2c(oc3c(Cl)c(Cl)c(Cl)cc32)c(Cl)c1Cl [2,3,4,6,7,8-HxCDF] | 44.8 | 31.1 | 82.8 | 28.1 | 47.9 | 13.2 | 43.8 | 0.1 | – | –
14 | Clc1cc2oc3c(Cl)c(Cl)c(Cl)cc3c2cc1Cl [2,3,4,7,8-PeCDF] | 40.1 | 26.5 | 55.0 | 40.2 | 46.2 | 13.0 | 16.1 | – | – | –
15 | Oc1cc(Cl)c(Cl)cc1Cl [2,4,5-Trichlorophenol] | – | – | – | – | – | – | – | – | <0.1 | –
16 | Oc1ccc(Cl)cc1Cl [2,4-Dichlorophenol] | – | – | – | – | – | – | – | – | <0.1 | –
17 | Clc1cc(-c2cc(Cl)c(Cl)c(Cl)c2)cc(Cl)c1Cl [3,3′,4,4′,5,5′-HxCB] | – | – | – | – | – | – | – | – | <0.1 | –

Row | Compound | Inhibition rate [1, 6] [%] | Inhibition rate [1, 7] [%] | Inhibition rate [2, 6] [%] | Inhibition rate [2, 8] [%] | Inhibition rate [3, 6] [%] | Inhibition rate [3, 9] [%] | cross reaction [4, 10] [%] | TEF value [5] | cross reaction [4, 11] [%] | cross reaction [4] [%]
18 | Clc1ccc(-c2cc(Cl)c(Cl)c(Cl)c2)cc1Cl [3,3′,4,4′,5-PeCB] | – | – | – | – | – | – | – | – | <0.1 | –
19 | Clc1ccc(-c2ccc(Cl)c(Cl)c2)cc1Cl [3,3′,4,4′-TeCB] | – | – | – | – | – | – | – | – | <0.1 | –
20 | Oc1ccc(Cl)c(Cl)c1 [3,4-Dichlorophenol] | – | – | – | – | – | – | – | – | <0.1 | –
21 | c1ccc2cc3ccccc3cc2c1 [Anthracene] | – | – | – | – | – | – | – | – | <0.1 | –
22 | c1ccc2cc3c(ccc4ccccc43)cc2c1 [Benz[a]anthracene] | – | – | – | – | – | – | – | – | <0.1 | –
23 | c1ccc2c(c1)-c1cccc3c1c-2cc1ccccc13 [Benzo[b]fluoranthene] | – | – | – | – | – | – | – | – | <0.1 | –
24 | c1cc2ccc3ccc4ccc5cccc6c(c1)c2c3c4c56 [Benzo[ghi]perylene] | – | – | – | – | – | – | – | – | <0.1 | –
25 | c1ccc2cc3c(cc2c1)-c1cccc2cccc-3c12 [Benzo[k]fluoranthene] | – | – | – | – | – | – | – | – | <0.1 | –
26 | c1ccc2c(c1)ccc1c3ccccc3ccc21 [Chrysene] | – | – | – | – | – | – | – | – | <0.1 | –
27 | c1ccc2c(c1)-c1cccc3cccc-2c13 [Fluoranthene] | – | – | – | – | – | – | – | – | – | <0.1
28 | c1ccc2c(c1)Cc1ccccc1-2 [Fluorene] | – | – | – | – | – | – | – | – | <0.1 | –
29 | c1ccc2c(c1)-c1ccc3ccc4cccc5cc-2c1c3c45 [Indeno[1,2,3-cd]pyrene] | – | – | – | – | – | – | – | – | <0.1 | –
30 | c1ccc2ccccc2c1 [Naphthalene] | – | – | – | – | – | – | – | – | <0.1 | –
31 | c1ccc2c(c1)ccc1ccccc12 [Phenanthrene] | – | – | – | – | – | – | – | – | <0.1 | –
32 | c1cc2ccc3cccc4ccc(c1)c2c34 [Pyrene] | – | – | – | – | – | – | – | – | <0.1 | –
33 | Clc1cccc(Cl)c1 [m-Dichlorobenzene] | – | – | – | – | – | – | – | – | <0.1 | –
34 | Clc1ccc(-c2ccccc2)cc1 [p-chlorobiphenyl] | – | – | – | – | – | – | – | – | <0.1 | –
